Experimental data taken from patent US20250143299A1, “METHODS AND COMPOSITIONS FOR CONTROLLING PESTS IN VEGETABLES” (Globachem NV, priority 2022, published 2025).

What was measured:
Halyomorpha halys = assay: Example 13 egg trial, egg mass immersion bioassay on Halyomorpha halys; assay type: in vivo; details: for % Live instars emerged: egg mass immersion
Procedure: Halyomorpha halys were obtained from a lab strain that was mass reared for several generations from a field strain. Egg masses were provided at the same stage (2-3 days before hatching) in order to test same egg masses conditions.
Bioassay, consisting in egg masses immersion, was carried out dipping the egg masses by means of lab forceps for two second inside three different PA product concentrations (100 ppm, 50 ppm and 33 ppm), one treatment with a commercial standard (Trebon up, a.i., Etofenprox) and a treatment with only water (untreated Check) were performed. 4 replicates were performed (1 egg mass is considered 1 replicate).
Assessments were conducted at 1, 2, 4 days after application, egg mortality and larvae hatching from eggs were recorded, raw data were processed with ARM software. All the statistical procedures [Student-Newman-Keuls (SNK)], Anova and other calculation analysis were performed using the ARM 2020.0 software.

Spodoptera exigua = assay: Example 1 tomato plot trial, Spodoptera exigua (beet armyworm) control; assay type: in vivo; details: appl. A, 15 DAA
Procedure: Tomato—Spodoptera exigua (Beet Armyworm)
Trial conducted in 4 replicates on plots of 10 plants each. Application A was made at the occurrence of the insects.
The statistical design of this study was a completely randomized blocks design including 4 replicates. The homogeneity of variance was tested for all treatments and assessment dates by means of the Bartlett's test. In order to study the effect of the applied treatments for each assessment data, means were compared using Student-Newman-Keuls (p=0.05).

[1] = Halyomorpha halys, read-out: % Egg mortality

CCCCCCCCC(=O)O [PA, pelargonic acid]
mortality at 33 ppm (Halyomorpha halys; [1]): 17% | mortality at 50 ppm (Halyomorpha halys; [1]): 46% | mortality at 100 ppm (Halyomorpha halys; [1]): 65% | % Live instars emerged (Halyomorpha halys; 33 ppm ai (3.3 ml/l)): 47% | % Live instars emerged (Halyomorpha halys; 50 ppm ai (5 ml/l)): 18% | % Live instars emerged (Halyomorpha halys; 100 ppm ai (10 ml/l)): 5% | Damage severity (1-4), plant (Spodoptera exigua; 650 g/ha (1 L/ha)): 61.37 a % UNCK | Nr damaged leaves (Spodoptera exigua; 650 g/ha (1 L/ha)): 63.30 a % UNCK | Nr of larvae (Spodoptera exigua; 650 g/ha (1 L/ha)): 73.85 b % UNCK | Damage severity (1-4), plant (Spodoptera exigua; 1300 g/ha (2 L/ha)): 61.01 a % UNCK | Nr damaged leaves (Spodoptera exigua; 1300 g/ha (2 L/ha)): 71.72 a % UNCK | Nr of larvae (Spodoptera exigua; 1300 g/ha (2 L/ha)): 79.47 b % UNCK | Damage severity (1-4), plant (Spodoptera exigua; 2600 g/ha (4 L/ha)): 64.85 a % UNCK | Nr damaged leaves (Spodoptera exigua; 2600 g/ha (4 L/ha)): 63.54 a % UNCK | Nr of larvae (Spodoptera exigua; 2600 g/ha (4 L/ha)): 90.18 a % UNCK
